Experimental data: patent US20150087686A1, “CRYSTALLINE FORMS OF SAXAGLIPTIN” (priority 2012, published 2015)
Structures can show the parent of a compound that is named as a salt.

Key:
Assay type in all cases: physicochemical
[1] = Crystal form stability at room temperature (transformation to H2-1); details: H0.75-3: after one night
Text: WO20100115974 discloses three forms of saxagliptin hydrochloride (I-S, HT-S, IV-S) but with a water content of not more than 1.5% by weight. […] On the other hand, the saxagliptin hydrochloride dihydrate H2-1 is stable. Unfortunately, it is difficult to prepare it in pure form by an industrial process which could be reproducible at industrial scale.

[2] = Crystalline stability at 60° C.-37% RH (XRPD); details: stored at 60° C. with 37% RH
Description: Crystalline and chemical stability at 60° C.-37% RH: saxagliptin crystalline form I and the known saxagliptin crystalline forms H-1, H2-1 were stored at 60° C. with 37% relative humidity (RH). The samples were analyzed by XRPD and HPLC-MS to check crystalline transformation and chemical degradation. […] However, chemical degradations were observed (see Table 6 below).
(§1) Crystalline and chemical stability at 60° C.—37% RH: Saxagliptin crystalline forms H-1, H2-1 and A were stored at 60° C. with 37% RH. The samples were analyzed by XRPD and HPLC-MS to check crystalline transformation and chemical degradation.

[3] = Chemical stability at 60° C.-37% RH (amidine impurities by HPLC-MS); details: for Color of the solid form after storage: after 1 week
Description: Crystalline and chemical stability at 60° C.-37% RH: saxagliptin crystalline form I and the known saxagliptin crystalline forms H-1, H2-1 were stored at 60° C. with 37% relative humidity (RH). The samples were analyzed by XRPD and HPLC-MS to check crystalline transformation and chemical degradation.
as §1

[4] = Solubility and stability in water at room temperature; details: for Solubility in water compared with saxagliptin HCl dihydrate H2-1 / Solubility in water: volumes of water in which the form is soluble: room temperature

Q: With `N#C[C@@H]1C[C@@H]2C[C@@H]2N1C(=O)[C@@H](N)C12CC3CC(CC(O)(C3)C1)C2` [Form H0.75-3, saxagliptin hydrochloride] as the compound, how does the “Crystal form stability (transformation to saxagliptin hydrochloride dihydrate H2-1)” value (“Crystal form stability” for short) ([1]; hydrochloride) read?
A: The value was “transforms to saxagliptin hydrochloride dihydrate H2-1”.

Q: With `N#C[C@@H]1C[C@@H]2C[C@@H]2N1C(=O)[C@@H](N)C12CC3CC(CC(O)(C3)C1)C2` [IV-S, saxagliptin hydrochloride] as the compound, how does the “Crystal form stability” value ([1]; hydrochloride) read?
A: Its value is “not very stable”.

Q: Which “Crystal form stability” value ([1]; hydrochloride) does the source give for `N#C[C@@H]1C[C@@H]2C[C@@H]2N1C(=O)[C@@H](N)C12CC3CC(CC(O)(C3)C1)C2` [HT-S, saxagliptin hydrochloride] here?
A: Its value is “not very stable”.

Q: Which “Crystalline transformation (XRPD)” value [2] does the source give for `N#C[C@@H]1C[C@@H]2C[C@@H]2N1C(=O)[C@@H](N)C12CC3CC(CC(O)(C3)C1)C2` [Form H-1, (1S,3S,5S)-2-[(2S)-2-amino-2-(3-hydroxy-1-adamantyl)acetyl]-2-azabicyclo[3.1.0]hexane-3-carbonitrile] here?
A: Its value is “No crystalline transformations were observed”.

Q: And the “Δ variation amidine Impurity % (HPLC-MS), impurity (A)” value (shortened to “Δ variation amidine Impurity % … (A)”) ([3]; 16 h (Table 6))?
A: The value was 0.64% (A).

Q: And the “Δ variation amidine Impurities A and B % (HPLC-MS), impurity (A)” value ([3]; 16 h (Table 7))?
A: Its value is 0.6% (A).

Q: And the “Δ variation amidine Impurity % … (A)” value ([3]; 168 h (Table 6))?
A: Its value is 2.68%.

Q: What about the “Δ variation amidine Impurity % (HPLC-MS), impurity (B)” value ([3]; 168 h (Table 6)) of the same compound?
A: Its value is 2.21%.

Q: What about the “Δ variation amidine Impurities A and B % (HPLC-MS), impurity (A)” value ([3]; 168 h (Table 7)) of the same compound?
A: The value was 2.7%.

Q: What about the “Δ variation amidine Impurities A and B % (HPLC-MS), impurity (B)” value ([3]; 168 h (Table 7)) of the same compound?
A: Its value is 2.2%.

Q: What about the “Δ variation amidine Impurity % … (A)” value ([3]; 184 h (Table 6)) of the same compound?
A: Its value is 2.86% (A) +.

Q: What about the “Δ variation amidine Impurity % (HPLC-MS), impurity (B)” value ([3]; 184 h (Table 6)) of the same compound?
A: The value was 2.33% (B).

Q: And the “Color of the solid form after storage” value [3]?
A: The value was “became yellowish”.

Q: Which “Solubility in water (in words, description)” value [4] does the source give for `Cl.N#C[C@@H]1C[C@@H]2C[C@@H]2N1C(=O)[C@@H](N)C12CC3CC(CC(O)(C3)C1)C2.O.O=C(O)CO` [Form II, saxagliptin HCl glycolic acid cocrystal (1:1) monohydrate] here?
A: Its value is “quite soluble in water”.

Q: And the “Solubility in water compared with saxagliptin HCl dihydrate H2-1” value [4]?
A: The value was “same solubility”.

Q: And the “Solubility in water: volumes of water in which the form is soluble” value (from here on “Solubility in water: volumes of water”) [4]?
A: Its value is 5 volumes of water.

Q: Which “Solubility in water (in words, description)” value [4] does the source give for “saxagliptin HCl.malonic acid cocrystal (3:2) hydrate [Form III]” here?
A: Its value is “soluble in water”.

Q: And the “Solubility in water compared with saxagliptin HCl dihydrate H2-1” value [4]?
A: Its value is “solubility similar”.

Q: And the “Solubility in water: volumes of water” value [4]?
A: Its value is “approximately 4 volumes of water”.

Q: What does the source list for “saxagliptin HCl.saxagliptin cocrystal (1:1) hydrate [Form I]”?
A: Crystalline transformation (XRPD) [2]: No crystalline transformations were observed; Solubility in water (in words, description) [4]: soluble in water; Solubility in water ([4]; 20 vol. in water at room temperature (20-25° C.)): soluble; Stability in water (reprecipitation) ([4]; 20 vol. in water at room temperature, after 24 h): reprecipitation was not observed; Degradation rate / stability compared with free base H-1 and hydrochloride H2-1 [3]: much lower; Δ variation amidine Impurity % (HPLC-MS), impurity (A) ([3]; 16 h (Table 6)): 0.08% (A); Δ variation amidine Impurity % (HPLC-MS), impurity (A) ([3]; 168 h (Table 6)): 0.38% (A); Δ variation amidine Impurity % (HPLC-MS), impurity (A) ([3]; 184 h (Table 6)): 0.40% (A); Color of the solid form after storage [3]: remained white

Q: With `N#C[C@@H]1C[C@@H]2C[C@@H]2N1C(=O)[C@@H](N)C12CC3CC(CC(O)(C3)C1)C2` [Form H2-1, saxagliptin hydrochloride dihydrate, reference compound] as the compound, how does the “Solubility in water: volumes of water” value [4] read?
A: The value was 5 volumes of water.

Q: What about the “Crystal form stability” value ([1]; hydrochloride dihydrate) of the same compound?
A: Its value is “stable”.

Q: For `N#C[C@@H]1C[C@@H]2C[C@@H]2N1C(=O)[C@@H](N)C12CC3CC(CC(O)(C3)C1)C2` [Form P-5, saxagliptin hydrochloride], which “Crystal form stability” value ([1]; hydrochloride) is on record?
A: The value was “not very stable”.

Q: Which results are given for `Cl.N#C[C@@H]1C[C@@H]2C[C@@H]2N1C(=O)[C@@H](N)C12CC3CC(CC(O)(C3)C1)C2.NC(N)=O.NC(N)=O.NC(N)=O` [Form IV, saxagliptin HCl.urea cocrystal (1:3)]?
A: Solubility in water (in words, description) [4]: very soluble in water; Solubility in water compared with saxagliptin HCl dihydrate H2-1 [4]: more soluble; Solubility in water: volumes of water in which the form is soluble [4]: approximately 2.5 volumes of water

Q: With `N#C[C@@H]1C[C@@H]2C[C@@H]2N1C(=O)[C@@H](N)C12CC3CC(CC(O)(C3)C1)C2` [I-S, saxagliptin hydrochloride] as the compound, how does the “Crystal form stability” value ([1]; hydrochloride) read?
A: Its value is “not very stable”.
